# Reference: ChEMBL document CHEMBL1201862, “PubChem BioAssay data set” (2004)
# The source made the active and inactive calls.
# Target: T1, Corticotropin-releasing factor receptor 2/Corticotropin-releasing factor-binding protein (Homo sapiens, UniProt P24387+Q13324)
# T1 sequence (Q13324 whole entry): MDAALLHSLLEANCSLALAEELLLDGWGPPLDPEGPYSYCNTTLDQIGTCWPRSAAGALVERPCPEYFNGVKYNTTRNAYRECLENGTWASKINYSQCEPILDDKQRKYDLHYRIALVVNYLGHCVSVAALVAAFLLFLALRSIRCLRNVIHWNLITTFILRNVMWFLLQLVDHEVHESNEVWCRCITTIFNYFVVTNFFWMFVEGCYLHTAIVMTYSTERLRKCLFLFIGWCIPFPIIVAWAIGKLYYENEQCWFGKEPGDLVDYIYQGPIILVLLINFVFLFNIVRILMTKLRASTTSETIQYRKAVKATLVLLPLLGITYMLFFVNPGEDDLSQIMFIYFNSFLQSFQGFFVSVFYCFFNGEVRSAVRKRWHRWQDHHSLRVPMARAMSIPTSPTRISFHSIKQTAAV
# T1 sequence (P24387 whole entry): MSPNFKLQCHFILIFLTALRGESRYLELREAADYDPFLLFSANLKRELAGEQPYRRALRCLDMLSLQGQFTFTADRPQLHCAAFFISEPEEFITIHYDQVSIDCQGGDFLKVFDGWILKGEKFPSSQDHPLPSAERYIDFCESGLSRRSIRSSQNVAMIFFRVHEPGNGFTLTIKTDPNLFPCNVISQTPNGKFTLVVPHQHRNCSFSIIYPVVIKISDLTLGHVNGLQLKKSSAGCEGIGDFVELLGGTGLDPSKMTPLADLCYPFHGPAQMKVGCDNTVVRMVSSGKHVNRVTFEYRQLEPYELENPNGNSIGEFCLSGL
# Assay: Dose Response confirmation of uHTS hits for small molecule antagonists of the CRF-binding protein and CRF-R2 receptor complex.
# Format: functional
# Settings: read-out: IC50_Mean
row,Compound,IC50
1,C=CCOc1nc2c(c(=O)n(Cc3ccc(Cl)c(Cl)c3)c(=O)n2C)n1C,> 47.1 µM (inactive)
2,CC(=O)Nc1ccc(OCC[n+]2cccc(C(N)=O)c2)cc1,> 47.1 µM (inactive)
3,N#C/C(=C(/O)COC(=O)COc1cccc(Br)c1)c1nc2ccccc2[nH]1,> 47.1 µM (inactive)
4,Cc1cc(C)c(S(=O)(=O)n2ccc3ccccc32)c(C)c1,> 47.1 µM (inactive)
5,COC(C(=O)Nc1ccc(F)cc1)c1ccccc1 (stereo not drawn),> 47.1 µM (inactive)
6,Cc1nn2c(N)c(-c3ccccc3)cnc2c1-c1ccc(Cl)cc1,> 47.1 µM (inactive)
7,CCC/C(=N\NC(=O)C1CC1)c1ccccc1,> 47.1 µM (inactive)
8,O=C(c1ccc(NS(=O)(=O)c2cccc([N+](=O)[O-])c2)cc1)N1CCCCCC1,> 47.1 µM (inactive)

# Test system: not listed separately
# Assay: viability of uninfected HEp-2 cells – cell-based, HTS, cytotoxicity control for RSV inhibitor project, dose response (AID 2410)
# Format: functional
# Settings: human respiratory syncytial virus
row,Compound,CC50
1,O=C(Nc1nc(-c2ccc(Cl)cc2)cs1)NC1CCCCC1,20.3 µM (active)
2,Cc1ccc(C2(C)NC(=O)N(CC(=O)Nc3ccc(-c4nc5ccc(C)cc5s4)cc3)C2=O)cc1 (stereo not drawn),41.5 µM (active)
3,COC(=O)c1sccc1-c1ccc(C(N)=O)o1,44 µM (active)
4,c1cncc(-c2nn3c(Cn4nnc5ccccc54)nnc3s2)c1,> 50 µM (active)

# Test system: not listed separately
# Assay: reduction of Shn3 3'UTR-driven luciferase in osteoblasts – cell-based, Clone20 osteoblasts, firefly luciferase, cherry-picked, dose response (AID 624132);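 further: firefly luciferase luminescence from reporter carrying the Shn3 3'UTR in osteoblasts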
# Format: functional
# Settings: not given
row,Compound,AC50
1,COc1ccc(CN(C(=O)CSc2nnc(-c3ccc(F)cc3)o2)c2ccc(F)cc2)cc1,43.4 µM (active)

# Target: T1, Corticotropin-releasing factor receptor 2/Corticotropin-releasing factor-binding protein
# Assay: activators of CRF receptor 2 with binding protein – uHTS hits, confirmation (AID 602473)
# Format: functional
# Settings: read-out: EC50_Mean
row,Compound,EC50
1,C=CCOc1nc2c(c(=O)n(Cc3ccc(Cl)c(Cl)c3)c(=O)n2C)n1C,> 53 µM (inactive)
2,CC(=O)Nc1ccc(OCC[n+]2cccc(C(N)=O)c2)cc1,> 53 µM (inactive)
3,N#C/C(=C(/O)COC(=O)COc1cccc(Br)c1)c1nc2ccccc2[nH]1,> 53 µM (inactive)
4,Cc1cc(C)c(S(=O)(=O)n2ccc3ccccc32)c(C)c1,> 53 µM (inactive)
5,COC(C(=O)Nc1ccc(F)cc1)c1ccccc1 (stereo not drawn),> 53 µM (inactive)
6,Cc1nn2c(N)c(-c3ccccc3)cnc2c1-c1ccc(Cl)cc1,> 53 µM (inactive)
7,CCC/C(=N\NC(=O)C1CC1)c1ccccc1,> 53 µM (inactive)
8,O=C(c1ccc(NS(=O)(=O)c2cccc([N+](=O)[O-])c2)cc1)N1CCCCCC1,> 53 µM (inactive)

# Test system: H4
# Assay: Luminescence Cell-Based Dose Response HTS to Identify Activators of 5'UTR Stem-Loop Driven Prion Protein mRNA Translation in H4 Neuroglioblastoma Cells. [Related pubchem assays: 1829 (Project Summary), 1814 (Primary HTS)]
# Format: functional
# Settings: Homo sapiens
row,Compound,EC50
1,c1ccc(CNC2=NN=C(c3ccccc3)CS2)cc1,24.2 µM (active)
2,Cc1ccnc(NC(=O)c2ccc(NC(=O)c3ccco3)cc2)c1,11.9 µM (active)
3,COc1ccc(N2C(=O)CC(Sc3nc(C)cc(C)c3C#N)C2=O)cc1 (stereo not drawn),25.4 µM (active)

# Target: Cytochrome P450 2C9 (Homo sapiens, UniProt P11712)
# Settings: not given
# Sequence of Cytochrome P450 2C9 (P11712 whole entry): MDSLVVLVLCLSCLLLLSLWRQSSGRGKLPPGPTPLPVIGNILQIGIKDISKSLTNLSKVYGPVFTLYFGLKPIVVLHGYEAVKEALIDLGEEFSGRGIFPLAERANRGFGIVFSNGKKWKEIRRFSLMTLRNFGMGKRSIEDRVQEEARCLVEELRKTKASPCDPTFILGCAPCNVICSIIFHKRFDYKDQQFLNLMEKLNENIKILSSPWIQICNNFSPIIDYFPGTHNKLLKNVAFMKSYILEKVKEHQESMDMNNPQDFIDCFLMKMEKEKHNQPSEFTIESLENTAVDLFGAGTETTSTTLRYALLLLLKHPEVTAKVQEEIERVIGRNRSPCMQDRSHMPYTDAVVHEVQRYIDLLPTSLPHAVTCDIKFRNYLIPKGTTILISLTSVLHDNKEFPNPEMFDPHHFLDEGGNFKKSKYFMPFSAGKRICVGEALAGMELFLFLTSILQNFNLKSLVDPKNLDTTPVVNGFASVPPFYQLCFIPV
row,Compound,AC50
1,C=CC[C@@H]1C=C[C@H](O/N=C(\C)CCN2CCc3nc(-c4ccccc4)c(-c4ccccc4)cc3C2)[C@H](CO)O1,0.0794 µM (inconclusive)
2,COc1ccc(Oc2ncc3nc(-c4cccc(C#N)c4)c(=O)n(Cc4cccc(OC)c4)c3n2)cc1,2.51 µM (inconclusive)
3,CCCCNC(=O)CSc1nc2ccccc2c(=O)n1CCNC(C)=O,22.4 µM (inconclusive)
4,O=S(=O)(c1ccccc1)N1CCC[C@@]2(CCN(c3ccccc3)C2)C1,2.51 µM (inconclusive)
5,COc1ccc(-c2nc3cnc(OC)nc3n(Cc3cccc(OC)c3)c2=O)cc1,3.16 µM (inconclusive)
6,Cc1nc2ccccn2c1C(=O)C1=C(O)C(=O)N(CCN2CCOCC2)C1c1cccnc1 (stereo not drawn),17.8 µM (inconclusive)

# Test system: not listed separately
# Assay: Luminescence Cell-Based Dose Response HTS to Identify Activators of Luciferase Translation or Activity in H4 […] Cells. [Related pubchem assays: 1829 (Project Summary), 1814 (Primary HTS)]
# Format: functional
# Settings: not given
row,Compound,EC50
1,c1ccc(CNC2=NN=C(c3ccccc3)CS2)cc1,0.293 µM (active)
2,Cc1ccnc(NC(=O)c2ccc(NC(=O)c3ccco3)cc2)c1,1.37 µM (active)
3,COc1ccc(N2C(=O)CC(Sc3nc(C)cc(C)c3C#N)C2=O)cc1 (stereo not drawn),14.6 µM (active)
